Source: patent publication US9765105B2, “Macrolide compound” (Pulike Biological Engineering, Inc., priority 2013, dated 2017)

Assays:
Assay in all cases: in vitro susceptibility, MIC by mini broth dilution
Format in all cases: cell-based
[1] = tested on: Pasteurella multocida CVCC399; conditions: strain CVCC399
How it was run: (§1)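 MICs determined by mini broth dilution following NCCLS standards, using two-fold serial dilutions of compound in DMSO across 11 gradients, in duplicate rows. Strains were revived and subcultured at 35 °C for 20 h. Bacterial suspension was diluted 1:200 in liquid medium.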

[2] = tested on: Streptococcus equines CVCC556; conditions: strain CVCC556
How it was run: as §1

[3] = tested on: Haemophilus parasuis
How it was run: as §1

[4] = tested on: Actinobacillus pleuropneumoniae CVCC262; conditions: strain CVCC262
How it was run: as §1

[5] = tested on: Staphylococcus aureus CVCC26003; conditions: strain CVCC26003
How it was run: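 MICs were determined by mini broth dilution under NCCLS standards in CAMHB, using revived S. aureus CVCC26003 subcultured 20 h at 35° C. Compounds were two-fold serially diluted in DMSO across 11 wells, with duplicate rows. Bacterial suspension was diluted 1:200 in medium before inoculation.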

Compound	MIC values, Pasteurella multocida CVCC399 [1] [ug/mi]	MIC values, Streptococcus equines CVCC556 [2] [ug/mi]	MIC values, Haemophilus parasuis [3] [ug/mi]	MIC values, Actinobacillus pleuropneumoniae CVCC262 [4] [ug/mi]	MIC values, Staphylococcus aureus CVCC26003 [5] [ug/mi]
CCCN1C[C@H](C)[C@@H](O)[C@](C)(O)[C@@H](CC)OC(=O)[C@H](C)[C@@H](O[C@H]2C[C@@](C)(OC)[C@](O)(CNC(C)CCc3ccccc3)[C@H](C)O2)[C@H](C)[C@@H](O[C@@H]2O[C@H](C)C[C@H](N(C)C)[C@H]2O)[C@](C)(O)C[C@H]1C (stereo partly drawn) [syzx-134]	0.5	0.25	0.25	0.25	0.25
CCCN1C[C@H](C)[C@@H](O)[C@](C)(O)[C@@H](CC)OC(=O)[C@H](C)[C@@H](O[C@H]2C[C@@](C)(OC)[C@](O)(CNCc3cccc(OC)c3)[C@H](C)O2)[C@H](C)[C@@H](O[C@@H]2O[C@H](C)C[C@H](N(C)C)[C@H]2O)[C@](C)(O)C[C@H]1C [syzx-135]	2	0.5	0.5	1	1
CCCN1C[C@H](C)[C@@H](O)[C@](C)(O)[C@@H](CC)OC(=O)[C@H](C)[C@@H](O[C@H]2C[C@@](C)(OC)[C@](O)(CN3CCNCC3)[C@H](C)O2)[C@H](C)[C@@H](O[C@@H]2O[C@H](C)C[C@H](N(C)C)[C@H]2O)[C@](C)(O)C[C@H]1C [syzx-136]	0.5	0.25	0.25	0.5	0.25
CCCN1C[C@H](C)[C@@H](O)[C@](C)(O)[C@@H](CC)OC(=O)[C@H](C)[C@@H](O[C@H]2C[C@@](C)(OC)[C@](O)(CNC(=O)C(F)(F)F)[C@H](C)O2)[C@H](C)[C@@H](O[C@@H]2O[C@H](C)C[C@H](N(C)C)[C@H]2O)[C@](C)(O)C[C@H]1C [syzx-137]	2	1	0.5	0.5	0.5
CCCN1C[C@H](C)[C@@H](O)[C@](C)(O)[C@@H](CC)OC(=O)[C@H](C)[C@@H](O[C@H]2C[C@@](C)(OC)[C@](O)(CNc3ccnc(Cl)c3)[C@H](C)O2)[C@H](C)[C@@H](O[C@@H]2O[C@H](C)C[C@H](N(C)C)[C@H]2O)[C@](C)(O)C[C@H]1C [syzx-138]	8	0.5	2	2	2
C#CCNC[C@]1(O)[C@H](C)O[C@@H](O[C@H]2[C@H](C)[C@@H](O[C@@H]3O[C@H](C)C[C@H](N(C)C)[C@H]3O)[C@](C)(O)C[C@@H](C)N(CCC)C[C@H](C)[C@@H](O)[C@](C)(O)[C@@H](CC)OC(=O)[C@@H]2C)C[C@@]1(C)OC [syzx-140]	1	0.25	0.25	0.25	0.25
CCCN1C[C@H](C)[C@@H](O)[C@](C)(O)[C@@H](CC)OC(=O)[C@H](C)[C@@H](O[C@H]2C[C@@](C)(OC)[C@](O)(CNC(CC)C(=O)O)[C@H](C)O2)[C@H](C)[C@@H](O[C@@H]2O[C@H](C)C[C@H](N(C)C)[C@H]2O)[C@](C)(O)C[C@H]1C (stereo partly drawn) [syzx-141]	1	0.25	0.25	0.25	0.25
CCCN1C[C@H](C)[C@@H](O)[C@](C)(O)[C@@H](CC)OC(=O)[C@H](C)[C@@H](O[C@H]2C[C@@](C)(OC)[C@](O)(CNCCCC(=O)O)[C@H](C)O2)[C@H](C)[C@@H](O[C@@H]2O[C@H](C)C[C@H](N(C)C)[C@H]2O)[C@](C)(O)C[C@H]1C [syzx-142]	0.5	0.5	0.25	0.25	0.25
CCCN1C[C@H](C)[C@@H](O)[C@](C)(O)[C@@H](CC)OC(=O)[C@H](C)[C@@H](O[C@H]2C[C@@](C)(OC)[C@](O)(CNCCOCCO)[C@H](C)O2)[C@H](C)[C@@H](O[C@@H]2O[C@H](C)C[C@H](N(C)C)[C@H]2O)[C@](C)(O)C[C@H]1C [syzx-143]	1	0.25	0.25	0.25	0.25
CCCN1CC(C)C(O)C(C)(O)C(CC)OC(=O)C(C)C(OC2CC(C)(OC)C(O)(CNC(CO)CO)C(C)O2)C(C)C(OC2OC(C)CC(N(C)C)C2O)C(C)(O)CC1C (stereo not drawn) [syzx-145]	2	0.5	0.5	64	1
CCCN1C[C@H](C)[C@@H](O)[C@](C)(O)[C@@H](CC)OC(=O)[C@H](C)[C@@H](O[C@H]2C[C@@](C)(OC)[C@](O)(CNCCCO)[C@H](C)O2)[C@H](C)[C@@H](O[C@@H]2O[C@H](C)C[C@H](N(C)C)[C@H]2O)[C@](C)(O)C[C@H]1C [syzx-146]	0.5	0.25	0.25	0.25	0.25
CCCCCNC[C@]1(O)[C@H](C)O[C@@H](O[C@H]2[C@H](C)[C@@H](O[C@@H]3O[C@H](C)C[C@H](N(C)C)[C@H]3O)[C@](C)(O)C[C@@H](C)N(CCC)C[C@H](C)[C@@H](O)[C@](C)(O)[C@@H](CC)OC(=O)[C@@H]2C)C[C@@]1(C)OC [syzx-147]	0.5	0.25	0.25	0.25	0.25
